Experimental data: ChEMBL document CHEMBL4330105, “Identification of novel azaindazole CCR1 antagonist clinical candidates” (Bioorg Med Chem Lett, 2019)

Tests used:
Format in all cases: ADME, organism-based
[1] = Oral bioavailability in Sprague-Dawley rat at 10 mg/kg; conditions: in vivo
[2] = Clearance in Sprague-Dawley rat at 10 mg/kg, po or 1 mg/kg, iv relative to hepatic blood flow; conditions: in vivo
[3] = Volume of distribution at steady state in Sprague-Dawley rat at 10 mg/kg, po or 1 mg/kg, iv; conditions: in vivo, read-out: Vdss

bioavailability [1]: 29%
CL [2]: 8%
Vd [3]: 1.2 L/kg
Structure (SMILES): CS(=O)(=O)c1cc(CNC(=O)c2cncc3c2cnn3-c2ccc(F)cc2)ccn1
